Results: US7262267B1, “Polypeptide mediating cell permeability” (Island Pharmacueticals, Ltd., priority 1998, dated 2007)
Where no end group is shown, it is not given here.

Legend:
[1] = system: c-Raf1 kinase; experiment: Inhibition of the TNFα-dependent activation of c-Raf1 kinase (immunocomplex test with MEK and γ-32P-ATP); assay type: cell-based; conditions: HeLa cells incubated 2 h with 2 μM polypeptide, stimulated 15 min with TNFα; FIG. 2
Excerpt: The detection of cell permeability mediated by CPP is shown by inhibition of the TNFα-dependent activation of c-Raf1 kinase. The activation of the c-Raf1 kinase is based on the interaction between the TNF receptor I (TNR-RI) and the adapter molecule Grb2. For this purpose, the SH3 domain of Grb2 interacts with a PLAP motive from the cytoplasmic domain of TNF-RI.
CPP is provided in the form of a fusion polypeptide. In this fusion polypeptide referred to as CPP-PLAP CPP, the amino acid sequence of FIG. 1 is present as N-terminus partner and a PLAP motive from the cytoplasmic domain of TNF-RI is present as C-terminus partner. A fusion polypeptide referred to as CPP-KLAP is also provided, which has a mutated PLAP motive.
HeLa cells are incubated for 2 h with 2 μM CPP-PLAP or CPP-KLAP (control) and stimulated for 15 min with 100 μ/ml TNFα. The activation of c-Raf1 kinase is determined by an immunocomplex test using MEK (Santa Cruz, Biotech) and y^32p-ATP as substrate (cf. FIG. 2).

[2] = system: 293 cells; experiment: Cell permeability: detection of the protein in the cytosolic fraction of 293 cells by Western blot; assay type: cell-based; conditions: 1 μM in medium, Western blot anti-hexa-His and anti-eGFP
Experimental: Detection of the cell permeability mediated by DHBV (duck hepatitis B virus)-CPP was made as follows: According to standard methods a fusion protein consisting of a hexa-His-Tag (6H), DHBV-CPP and eGFP (enhanced green fluorescent protein) was prepared in analogy to Example 1 in an E. coli expression system. The pQE vector system of the Quiagen company was used. This protein (DHBV42-53eGFP) was isolated. wt6HeGFP (fusion protein of 6 His and eGFP) was used for control experiments. Then, 293 cells were incubated in the presence of these proteins for 10 and 20 minutes. The proteins were added to the medium at a concentration of 1 μM. After 10 or 20 minutes, the cells were lyzed and the cytosolic fraction of the cells was isolated by ultracentrifugation.
The presence of DHBV42-53 eGFP in the cytosol fraction was detected by means of Western blot analysis using a hexa-His-tag-specific antibody (FIG. 6, lanes 1-4) (anti-hexa-His6 of Qiagen company) or an eGFP-specific antibody (anti-eGFP of Clontech company) (FIG. 6, lanes 5-8). A peroxidase-conjugated secondary antibody (anti-mouse HRP, anti-rabbit-HRP of Amersham company) was used for the detection.

Row | Substance | inhibition of the TNFα-dependent activation of c-Raf1 kinase [1] | internalization of the protein into the cell (cytosol) ([2]; after 10 min) | internalization of the protein into the cell (cytosol) ([2]; after 20 minutes)
1 | CPP-PLAP: fusion polypeptide: amino acid sequence of FIG. 1 as N-terminus partner, PLAP motive from cytoplasmic domain of TNF-RI as C-terminus partner (PLSSIFSRIGDPTTTKPLAPNPSF) | fully inhibits |  | 
2 | DHBV42-53-eGFP: fusion protein consisting of a hexa-His-Tag (6H), DHBV-CPP and eGFP (enhanced green fluorescent protein) (TIDHVLDHVQTM; not fully specified (C-terminus); also: fusion with hexa-His tag and eGFP, not in the chain) |  | can be observed | can be observed
